Article PMC6175062, “Gaining Mechanistic Insight Into Coproporphyrin I as Endogenous Biomarker for OATP1B‐Mediated Drug–Drug Interactions Using Population Pharmacokinetic Modeling and Simulation” (Clinical Pharmacology and Therapeutics, 2018)
Where two headings read alike, the source gives them in different places.

Tests used:
[1] = system: OATP1B1; test: Literature rifampicin in vitro Ki/IC50 in transfected OATP1B1 cells; format: cell-based
Description: In addition, literature reported in vitro RIF inhibition data in OATP1B1-transfected cell lines using either CPI or other OATP1B1 probes (Table S5) were collated to understand further any potential differences between in vitro and in vivo estimated RIF inhibition parameters.

[2] = system: OATP; settings: inhibitor 600 mg, rosuvastatin 5 mg; ref (20); cited from earlier work
[3] = system: OATP; test: Model-based rifampicin in vivo OATP Ki using rosuvastatin as probe; parameters: species or system human; settings: total (not corrected for fu); RSV as probe; read-out: KiRSV, total Ki estimated by the model, population estimate (SE%)
Description: Based on the available plasma and urine data, a two compartment first order absorption and elimination model was used to describe the PK of RSV in the subjects. The model was parameterised using [picture] , volume of distribution of central ( [picture] ) and peripheral compartments ( [picture] ), inter-compartmental clearance ( [picture] ), biliary ( [picture] ) and renal ( [picture] ) clearance parameters. Analogous to CPI, inhibition of [picture] by RIF was incorporated in the rate of change of RSV plasma concentration, whereas it was assumed that RIF has no effect on RSV renal elimination (Eq 2). The rate of change of RSV amount in urine over time is shown in Eq3.
where [picture] and [picture] are RSV concentrations in central (plasma) and peripheral compartments, [picture] is the amount in depot compartment, [picture] is RSV amount in the urine and [picture] is RIF transporter inhibition constant using RSV as a probe. Change in RSV distribution parameters ( [picture] , [picture] and [picture] ) following co-administration with RIF was also investigated as a binary covariate where two sets of parameters were estimated under the two experimental conditions; RSV alone and RSV under treatment (presence of RIF).

[4] = system: OATP1B; test: Model-based rifampicin in vivo OATP Ki using CPI as probe; parameters: species or system human; settings: for Ki: human, plasma, oral, 600 mg, probe CPI (endogenous biomarker)
Method: The plasma concentrations of the endogenous biomarker CPI were described using a turnover model (Equation 3).36 Simultaneous fitting of individual CPI plasma and urine data in the presence and absence of RIF was performed. In the final model, RIF inhibited biliary elimination (CL b,CPI) of CPI, whereas its renal clearance (CL R,CPI) and k syn were not affected. The rate of change of CPI plasma concentration under baseline and RIF condition is shown in Equations 3 and 4, respectively, whereas change in CPI amount in urine over time is shown in Equation 5. (3) dCCPI/dt=[ksyn−CLb,CPI⋅CCPI−CLR,CPI⋅CCPI]⋅1/VCPI (4) dCCPI/dt=[ksyn−CLb,CPI⋅CCPI/1+CRIF/KiCPI−CLR,CPI⋅CCPI]⋅1/VCPI (5) dUCPI/dt=CLR,CPI⋅CCPI where C CPI is its plasma concentration, U CPI is the CPI amount in urine, t is time, k syn is the zero‐order synthesis rate, Ki CPI is RIF transporter inhibition constant using CPI as a probe, V CPI is the volume of distribution of CPI and C RIF is RIF plasma concentration (linked to RIF model). Simulations were also performed to assess the consequences of the hypothetical inhibition of both CPI synthesis (k syn and biliary elimination (CL b,CPI) by inhibitor of interest (details in Supplementary Material).

[5] = system: OATP2B1; parameters: method as in PMID 24617605, PMID 20102298; settings: inconsistent data; read-out: IC50, OATP2B1 inhibition; cited from earlier work
[6] = system: OATP1B1; settings: cited from earlier work
[7] = system: OATP1B; test: Rifampicin inhibition of CPI uptake in plated human hepatocytes; format: cell-based; settings: human, plated cryopreserved human hepatocytes, probe CPI (coproporphyrin I) 0.30 µM, CPI 0.30 µM
Method: (§1) The in vitro IC50 for rifampicin was assessed using CPI and RSV as OATP probe substrates in plated human hepatocytes. Cryopreserved human hepatocytes (Donor QQE, BioreclamationIVT, Baltimore, MD) were thawed and plated at a density of 350,000 cells (1). After culturing for 4h, hepatocytes were washed twice with Dulbecco's phosphate-buffered saline and pre-incubated for an hour with either buffer or rifampicin (0.01-100µM). Following pre-incubation, the medium was replaced with CPI (0.30µM) or RSV (2µM) containing rifampicin (0-100µM). Incubations were stopped after 3 or 5 minutes (for RSV and CPI,respectively) using the washing protocol described previously (2). Monolayers were lysed with water and frozen overnight and then prepared for protein quantification (BCA assay) and LC-MS/MS analysis.
(§2) Lysate concentrations were used to demine uptake rates over a series of free RIF concentrations measured in the medium and plotted as a % of the control to estimate RIF IC50 (Main article Figure 5A and Figure S1). RIF IC50 was determined using equation 1, where U denotes the uptake rate (% vs control) at the free inhibitor concentration in the incubation [I] (µM); R, the range of inhibition; B, the un-inhibitable background (%), and S, the slope factor (GraFit v6).

[8] = system: OATP1B-mediated CPI uptake in human hepatocytes; test: as above; format: cell-based
Method: as §1, §2

## CO[C@H]1/C=C/O[C@@]2(C)Oc3c(C)c(O)c4c(O)c(c(/C=N/N5CCN(C)CC5)c(O)c4c3C2=O)NC(=O)/C(C)=C\C=C\[C@H](C)[C@H](O)[C@@H](C)[C@@H](O)[C@@H](C)[C@H](OC(C)=O)[C@@H]1C [rifampicin]
[1]
  range in literature RIF IC50 (Table S5): 30 fold
[1]; depending on in vitro probe
  difference between in vivo Ki and literature in vitro data in OATP1B1-transfected cells: up to 50 fold
[2]
  Fold Change in AUC of rosuvastatin: 4.7 fold
[3]
  Ki: 2230 nM
[4]; CPI-based Ki lower
  difference between unbound in vivo Ki from CPI and from RSV: 2 fold
[4]; corrected for rifampicin fu plasma 0.11, read-out: in vivo unbound OATP Ki using CPI data
  Ki: 130 nM
[4]; total (not corrected for fu), CPI as probe, read-out: KiCPI, total Ki estimated by the model, population estimate (SE%)
  Ki: 1150 nM
[5]
  IC50: 2100 to 81000 nM
[6]; substrate Atorvastatin 1 µM, HEK, rifampicin 0.1-630 µM, ref (11)
  IC50: 2200 nM
[6]; substrate BSP 0.01 µM, HEK, rifampicin 0.01-100 µM, ref (7)
  IC50: 2750 nM
[6]; substrate Coproporphyrin I 0.1 µM, CHO, rifampicin 0.1-100 µM, ref (3)
  IC50: 3250 nM
[6]; substrate Coproporphyrin I 0.2 µM, HEK, rifampicin 0.1-100 µM, ref (4)
  IC50: 660 nM
[6]; substrate Coproporphyrin III 0.1 µM, CHO, rifampicin 0.1-100 µM, ref (3)
  IC50: 4610 nM
[6]; substrate Coproporphyrin III 0.2 µM, HEK, rifampicin 0.1-100 µM, ref (4)
  IC50: 790 nM
[6]; substrate Fexofenadine 1 µM, HEK, rifampicin 0.01-100 µM, ref (10)
  IC50: 423 nM
[6]; substrate GCDCA-S 1 µM, HEK, rifampicin 0.1-30 µM, ref (5)
  IC50: 390 nM
[6]; substrate Nateglinide 1 µM, HEK, rifampicin 0.01-100 µM, ref (10)
  IC50: 358 nM
[6]; substrate Pitavastatin 0.1 µM, HEK, rifampicin 0.01-100 µM, ref (10)
  IC50: 1070 nM
[6]; substrate Pitavastatin 0.1 µM, MDCKII, rifampicin 0.1-100 µM, ref (8)
  IC50: 1600 nM
[6]; substrate Pravastatin 10 µM, HEK, rifampicin 0.01-100 µM, ref (10)
  IC50: 653 nM
[6]; substrate Rosuvastatin 0.1 µM, HEK, ref (9)
  IC50: 1100 nM
[6]; substrate Rosuvastatin 0.1 µM, MDCKII, rifampicin 0.1-100 µM, ref (8)
  IC50: 1100 nM
[6]; substrate Rosuvastatin 1 µM, HEK, rifampicin 0.01-100 µM, ref (10)
  IC50: 952 nM
[6]; substrate Valsartan 1 µM, HEK, rifampicin 0.01-100 µM, ref (10)
  IC50: 377 nM
[6]; substrate [3H]-E1S 0.01 µM, HEK, rifampicin 0.01-100 µM, ref (7)
  IC50: 6960 nM
[6]; substrate [3H]-E2G 0.1 µM, HEK, rifampicin 0.01-100 µM, ref (7)
  IC50: 585 nM
[7]; 60 min pre-incubation with buffer, read-out: IC50, CPI uptake, pre-incubation with buffer
  IC50 at 5 min: 730 nM
[7]; 60 min pre-incubation with inhibitor, donor QQE, read-out: IC50, CPI uptake, pre-incubation with RIF
  IC50 at 5 min: 300 nM
[8]
  IC50 with CPI in hepatocytes, fold lower than reported values in transfected OATP1B1 cells: up to 10 fold
  increase in potency of inhibition of CPI uptake by preincubation with RIF: ~2 fold
[8]; in vitro higher than in vivo
  in vitro hepatocyte inhibition parameter (after preincubation) relative to in vivo Ki: 4 fold
